SMILES strings stand for the structures.

Sequence of Btk (Q06187 whole entry): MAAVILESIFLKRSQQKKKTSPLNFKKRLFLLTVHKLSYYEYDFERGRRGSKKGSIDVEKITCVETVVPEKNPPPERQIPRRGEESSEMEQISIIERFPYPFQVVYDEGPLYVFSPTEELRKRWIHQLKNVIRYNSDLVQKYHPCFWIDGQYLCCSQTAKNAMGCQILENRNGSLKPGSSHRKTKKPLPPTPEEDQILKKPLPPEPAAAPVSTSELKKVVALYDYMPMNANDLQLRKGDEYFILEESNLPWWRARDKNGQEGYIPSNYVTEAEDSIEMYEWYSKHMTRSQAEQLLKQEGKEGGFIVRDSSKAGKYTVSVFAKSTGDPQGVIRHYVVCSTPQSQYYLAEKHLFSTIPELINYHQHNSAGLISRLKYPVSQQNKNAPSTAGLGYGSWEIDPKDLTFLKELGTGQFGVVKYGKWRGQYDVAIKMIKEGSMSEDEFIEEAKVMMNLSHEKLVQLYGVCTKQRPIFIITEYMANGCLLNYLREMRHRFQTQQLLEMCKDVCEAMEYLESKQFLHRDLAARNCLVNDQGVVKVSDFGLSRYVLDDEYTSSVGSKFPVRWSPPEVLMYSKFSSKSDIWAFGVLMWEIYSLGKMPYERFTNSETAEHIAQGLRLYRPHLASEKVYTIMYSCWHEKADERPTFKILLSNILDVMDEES

For the assay, the target named is Btk (Homo sapiens, UniProt Q06187). Description: Btk protein degradation activity by Western blot in RPMI8226 cells. Format: cell-based. Further details: degradation activity of the compound (10 μM) on Btk protein in RPMI8226 cells; endogenous in cells; host or cells: RPMI8226; key: “−” represents no degradation activity; “+” represents a degradation rate of 10%-30%; “++” represents a degradation rate of 30%-50%; “+++” represents a degradation rate of 50%-90%; “++++” means the degradation rate is greater than 90%. The following applies: compound 10 μM, 24 hours. The protocol:
Example 6 Testing the Btk Protein Degradation Activity of Compounds by Western Blot
Cell lines: RPMI8226 Cell line was cultured in RPMI1640 medium containing 10% calf serum in a 37° C., 5% CO2, and saturated humidity incubator.
DMSO control group and compound intervention group (10 μM) were set. Cells was collected after the treatment for 24 hours, then 100 μL of pre-chilled cell lysate was added and cells were lysed on ice for 30 minutes. Total cell protein was extracted, and protein concentration was determined and quantified by […] (BCA) method. After routine gelatinization, loading, electrophoresis, then transferring to membrane and blocking, rabbit anti-human Btk (1:500) was added, and incubated at 4° C. overnight. The mixture was rinsed and then horseradish peroxidase labeled goat anti-rabbit IgG (1:5000) was added. After the rinsing it was developed by the ECL developing solution, the Bio-Rad gel imaging system was used for scanning and imaging, and the computer software was used for analysis. […] (GAPDH) was used as an internal control.
Image J software was used to analyze the gray scale of each band to calculate the Btk protein degradation rate of the compound.
With `Nc1ncnc2c1c(-c1ccc(Oc3ccccc3)cc1)nn2C1CCCN(C(=O)c2cn(CCOCCOCCOCCOCCNc3cccc4c3C(=O)N(C3CCC(=O)NC3=O)C4=O)nn2)C1` (stereo not drawn) [Compound 44], the Degradation activity entry is given as “+++ (“+++” represents a degradation rate of 50%-90%)”.
`C=C(CCOCCOCCOCCOc1cccc2c1C(=O)N(C1CCC(=O)NC1=O)C2=O)C(=O)N1CCCC(n2nc(-c3ccc(Oc4ccccc4)cc3)c3c(N)ncnc32)C1` (stereo not drawn) [Compound 31]: the Degradation activity result is “++++ (“++++” means the degradation rate is greater than 90%)”.
On to `Nc1ncnc2c1c(-c1ccc(Oc3ccccc3)cc1)nn2C1CCCN(C(=O)/C=C/CCOCCOCCOc2cccc3c2C(=O)N(C2CCC(=O)NC2=O)C3=O)C1` (stereo not drawn) [Compound 17], for which the Degradation activity entry is reported as “+++ (“+++” represents a degradation rate of 50%-90%)”.
Take `C=C(CCOCCOCCNc1cccc2c1C(=O)N(C1CCC(=O)NC1=O)C2=O)C(=O)N1CCCC(n2nc(-c3ccc(Oc4ccccc4)cc3)c3c(N)ncnc32)C1` (stereo not drawn) [Compound 34]: the Degradation activity entry is recorded as “++++ (“++++” means the degradation rate is greater than 90%)”.
As to `Nc1ncnc2c1c(-c1ccc(Oc3ccccc3)cc1)nn2C1CCN(CCOCCOCCOCCOc2cccc3c2C(=O)N(C2CCC(=O)NC2=O)C3=O)CC1` (stereo not drawn) [control compound, reference compound], the Degradation activity entry is recorded as “−”.
As for `C=C(CCOCCOCCOc1cccc2c1C(=O)N(C1CCC(=O)NC1=O)C2=O)C(=O)N1CCCC(n2nc(-c3ccc(Oc4ccccc4)cc3)c3c(N)ncnc32)C1` (stereo not drawn) [Compound 30], the Degradation activity result is “++++ (“++++” means the degradation rate is greater than 90%)”.
On to `Nc1ncnc2c1c(-c1ccc(Oc3ccccc3)cc1)nn2C1CCCN(C(=O)c2cn(CCOCCOCCOCCOCCOc3cccc4c3C(=O)N(C3CCC(=O)NC3=O)C4=O)nn2)C1` (stereo not drawn) [Compound 40], for which the Degradation activity result is “+++ (“+++” represents a degradation rate of 50%-90%)”.
Turning to `Nc1ncnc2c1c(-c1ccc(Oc3ccccc3)cc1)nn2C1CCCN(C(=O)/C=C/COCCOCCOCCOCCNc2cccc3c2C(=O)N(C2CCC(=O)NC2=O)C3=O)C1` (stereo not drawn) [Compound 27], the Degradation activity result is “++++ (“++++” means the degradation rate is greater than 90%)”.
As to `C=C(CCCOCCOCCNc1cccc2c1C(=O)N(C1CCC(=O)NC1=O)C2=O)C(=O)N1CCCC(n2nc(-c3ccc(Oc4ccccc4)cc3)c3c(N)ncnc32)C1` (stereo not drawn) [Compound 33], the Degradation activity result is reported as “++++ (“++++” means the degradation rate is greater than 90%)”.
As for `Nc1ncnc2c1c(-c1ccc(Oc3ccccc3)cc1)nn2C1CCCN(C(=O)c2cn(CCOCCOCCOCCNc3cccc4c3C(=O)N(C3CCC(=O)NC3=O)C4=O)nn2)C1` (stereo not drawn) [Compound 43], the Degradation activity entry is reported as “++++ (“++++” means the degradation rate is greater than 90%)”.
Then `Nc1ncnc2c1c(-c1ccc(Oc3ccccc3)cc1)nn2C1CCCN(C(=O)c2cn(CCOCCOCCOc3cccc4c3C(=O)N(C3CCC(=O)NC3=O)C4=O)nn2)C1` (stereo not drawn) [Compound 37], with “++++ (“++++” means the degradation rate is greater than 90%)”; and `Nc1ncnc2c1c(-c1ccc(Oc3ccccc3)cc1)nn2C1CCCN(C(=O)/C=C/CCOCCOCCOCCOCCNc2cccc3c2C(=O)N(C2CCC(=O)NC2=O)C3=O)C1` (stereo not drawn) [Compound 28], with “+++ (“+++” represents a degradation rate of 50%-90%)”; and `Nc1ncnc2c1c(-c1ccc(Oc3ccccc3)cc1)nn2C1CCCN(C(=O)/C=C/CCOCCOCCNc2cccc3c2C(=O)N(C2CCC(=O)NC2=O)C3=O)C1` (stereo not drawn) [Compound 23], with “++++ (“++++” means the degradation rate is greater than 90%)”.
On to `Nc1ncnc2c1c(-c1ccc(Oc3ccccc3)cc1)nn2C1CCCN(C(=O)/C=C/CCCCOCCOCCOCCOc2cccc3c2C(=O)N(C2CCC(=O)NC2=O)C3=O)C1` (stereo not drawn) [Compound 20], for which the Degradation activity result is “+++ (“+++” represents a degradation rate of 50%-90%)”.
The same measure for `Nc1ncnc2c1c(-c1ccc(Oc3ccccc3)cc1)nn2C1CCCN(C(=O)/C=C/CCCCOCCOCCOCCNc2cccc3c2C(=O)N(C2CCC(=O)NC2=O)C3=O)C1` (stereo not drawn) [Compound 26]: “++++ (“++++” means the degradation rate is greater than 90%)”.

The values are drawn from patent US11155561B2, “Substituted glutarimides as Btk inhibitors” (SHANGHAI MEIZER PHARMACEUTICALS CO., LTD., priority 2017, dated 2021).
